How the values were obtained:
[1] = Formation of 1,5-cz-[M(Lig)] from Lig and M^III ions (metal dependent click-zip) (Charts 4, 5); format: physicochemical; settings: MOPS/NaOH buffer pH 7.0, TD728, TD827 in 50% i-PrOH; for conversion to 1,5-cz-[M(Lig)], Y^III: TD714 sum of two diastereoisomers
[2] = Formation of 1,5-cz-[Ln(Lig)] from Lig and Ln^III ions (metal dependent click-zip), MOPS/NaOH buffer pH 7.0, analytical HPLC (Charts 1, 2); settings: MOPS/NaOH buffer pH 7.0

Row | SMILES | conversion to 1,5-cz-[M(Lig)], Sc^III ([1]; 1 week at 80° C.) | conversion to 1,5-cz-[M(Lig)], Y^III ([1]; 1 week at 80° C.) | conversion to 1,5-cz-[M(Lig)], Sc^III ([1]; 1 hour at 80° C.) | conversion to 1,5-cz-[M(Lig)], Y^III ([1]; 1 hour at 80° C.) | conversion to 1,5-cz-[Ln(Lig)], Ce^III ([2]; after 1 hour at 80° C.) | conversion to 1,5-cz-[Ln(Lig)], Dy^III ([2]; after 1 week at 80° C.) | conversion to 1,5-cz-[Ln(Lig)], Dy^III ([2]; after 1 hour at 80° C.) | conversion to 1,5-cz-[Ln(Lig)], Er^III ([2]; after 1 week at 80° C.) | conversion to 1,5-cz-[Ln(Lig)], Er^III ([2]; after 1 hour at 80° C.) | conversion to 1,5-cz-[Ln(Lig)], Eu^III ([2]; after 1 week at 80° C.) | conversion to 1,5-cz-[Ln(Lig)], Eu^III ([2]; after 1 hour at 80° C.) | conversion to 1,5-cz-[Ln(Lig)], Gd^III ([2]; after 1 week at 80° C.) | conversion to 1,5-cz-[Ln(Lig)], Gd^III ([2]; after 1 hour at 80° C.) | conversion to 1,5-cz-[Ln(Lig)], Ho^III ([2]; after 1 week at 80° C.) | conversion to 1,5-cz-[Ln(Lig)], Ho^III ([2]; after 1 hour at 80° C.) | conversion to 1,5-cz-[Ln(Lig)], La^III ([2]; after 1 hour at 80° C.) | conversion to 1,5-cz-[Ln(Lig)], Lu^III ([2]; after 1 week at 80° C.) | conversion to 1,5-cz-[Ln(Lig)], Lu^III ([2]; after 1 hour at 80° C.) | conversion to 1,5-cz-[Ln(Lig)], Nd^III ([2]; after 1 hour at 80° C.) | conversion to 1,5-cz-[Ln(Lig)], Pr^III ([2]; after 1 hour at 80° C.) | further results
1 | C#Cc1cccc(CN2CCN(CC(=O)O)CCN(Cc3cccc(CN=[N+]=[N-])n3)CCN(CC(=O)O)CC2)n1 [TD556] | 23% | 95% | 2% | 22% | 1% | 94% | 16% | 95% | 37% | 92% | 4% | 91% | 5% | 95% | 24% | 1% | 95% | 71% | 2% | 1% | conversion to 1,5-cz-[Ln(Lig)], Ce^III ([2]; after 1 week at 80° C.): 25%; conversion to 1,5-cz-[Ln(Lig)], La^III ([2]; after 1 week at 80° C.): 50%; conversion to 1,5-cz-[Ln(Lig)], Nd^III ([2]; after 1 week at 80° C.): 81%; conversion to 1,5-cz-[Ln(Lig)], Pr^III ([2]; after 1 week at 80° C.): 64%; conversion to 1,5-cz-[Ln(Lig)], Sm^III ([2]; after 1 week at 80° C.): 92%; conversion to 1,5-cz-[Ln(Lig)], Sm^III ([2]; after 1 hour at 80° C.): 3%; conversion to 1,5-cz-[Ln(Lig)], Tb^III ([2]; after 1 week at 80° C.): 95%; conversion to 1,5-cz-[Ln(Lig)], Tb^III ([2]; after 1 hour at 80° C.): 11%; conversion to 1,5-cz-[Ln(Lig)], Tm^III ([2]; after 1 week at 80° C.): 95%; conversion to 1,5-cz-[Ln(Lig)], Tm^III ([2]; after 1 hour at 80° C.): 52%; conversion to 1,5-cz-[Ln(Lig)], Yb^III ([2]; after 1 week at 80° C.): 95%; conversion to 1,5-cz-[Ln(Lig)], Yb^III ([2]; after 1 hour at 80° C.): 64%
2 | C#CCN(CC#C)CCN1CCN(CC(=O)O)CCN(Cc2cc(-c3ccccc3)cc(CN=[N+]=[N-])n2)CCN(CC(=O)O)CC1 [TD669] | 0% | 12% | 0% | 0% | 0% | 20% | 0% | 12% | 0% | 25% | 0% | 24% | 0% | 14% | 0% | 0% | 7% | 0% | 0% | 0% | conversion to 1,5-cz-[Ln(Lig)], Sm^III ([2]; after 1 week at 80° C.): 33%; conversion to 1,5-cz-[Ln(Lig)], Sm^III ([2]; after 1 hour at 80° C.): 0%; conversion to 1,5-cz-[Ln(Lig)], Tb^III ([2]; after 1 hour at 80° C.): 0%; conversion to 1,5-cz-[Ln(Lig)], Tm^III ([2]; after 1 week at 80° C.): 11%; conversion to 1,5-cz-[Ln(Lig)], Tm^III ([2]; after 1 hour at 80° C.): 0%; conversion to 1,5-cz-[Ln(Lig)], Yb^III ([2]; after 1 week at 80° C.): 10%; conversion to 1,5-cz-[Ln(Lig)], Yb^III ([2]; after 1 hour at 80° C.): 0%
3 | [N-]=[N+]=NCc1cc(-c2ccccc2)cc(CN2CCN(CC(=O)O)CCN(Cc3cccc(C#CCN)n3)CCN(CC(=O)O)CC2)n1 [TD722] | 14% | 71% | 3% | 9% | 0% | 65% | 5% | 91% | 17% | 14% | 1% | 19% | 2% | 82% | 9% | 0% | 96% | 49% | 0% | 0% | conversion to 1,5-cz-[Ln(Lig)], Ce^III ([2]; after 1 week at 80° C.): 1%; conversion to 1,5-cz-[Ln(Lig)], La^III ([2]; after 1 week at 80° C.): 2%; conversion to 1,5-cz-[Ln(Lig)], Nd^III ([2]; after 1 week at 80° C.): 4%; conversion to 1,5-cz-[Ln(Lig)], Pr^III ([2]; after 1 week at 80° C.): 3%; conversion to 1,5-cz-[Ln(Lig)], Sm^III ([2]; after 1 week at 80° C.): 9%; conversion to 1,5-cz-[Ln(Lig)], Sm^III ([2]; after 1 hour at 80° C.): 1%; conversion to 1,5-cz-[Ln(Lig)], Tb^III ([2]; after 1 week at 80° C.): 54%; conversion to 1,5-cz-[Ln(Lig)], Tb^III ([2]; after 1 hour at 80° C.): 3%; conversion to 1,5-cz-[Ln(Lig)], Tm^III ([2]; after 1 week at 80° C.): 96%; conversion to 1,5-cz-[Ln(Lig)], Tm^III ([2]; after 1 hour at 80° C.): 27%; conversion to 1,5-cz-[Ln(Lig)], Yb^III ([2]; after 1 week at 80° C.): 96%; conversion to 1,5-cz-[Ln(Lig)], Yb^III ([2]; after 1 hour at 80° C.): 38%
4 | C#Cc1cccc(CN2CCN(CC(=O)O)CCN(Cc3cc(-c4ccc(C(=O)O)cc4)cc(CN=[N+]=[N-])n3)CCN(CC(=O)O)CC2)n1 [TD742] | 52% | 94% | 7% | 22% | 1% | 93% | 15% | 94% | 34% | 89% | 4% | 91% | 5% | 94% | 22% | 1% | 94% | 66% | 1% | 1% | conversion to 1,5-cz-[Ln(Lig)], Ce^III ([2]; after 1 week at 80° C.): 43%; conversion to 1,5-cz-[Ln(Lig)], La^III ([2]; after 1 week at 80° C.): 40%; conversion to 1,5-cz-[Ln(Lig)], Nd^III ([2]; after 1 week at 80° C.): 76%; conversion to 1,5-cz-[Ln(Lig)], Pr^III ([2]; after 1 week at 80° C.): 66%; conversion to 1,5-cz-[Ln(Lig)], Sm^III ([2]; after 1 week at 80° C.): 87%; conversion to 1,5-cz-[Ln(Lig)], Sm^III ([2]; after 1 hour at 80° C.): 3%; conversion to 1,5-cz-[Ln(Lig)], Tb^III ([2]; after 1 week at 80° C.): 93%; conversion to 1,5-cz-[Ln(Lig)], Tb^III ([2]; after 1 hour at 80° C.): 9%; conversion to 1,5-cz-[Ln(Lig)], Tm^III ([2]; after 1 week at 80° C.): 94%; conversion to 1,5-cz-[Ln(Lig)], Tm^III ([2]; after 1 hour at 80° C.): 48%; conversion to 1,5-cz-[Ln(Lig)], Yb^III ([2]; after 1 week at 80° C.): 93%; conversion to 1,5-cz-[Ln(Lig)], Yb^III ([2]; after 1 hour at 80° C.): 55%

From patent US20250147039A1, “Compounds for complexation of rare earth elements and/or s-, p-, d- block metals, their coordination compounds, peptide conjugates, method of their preparation and use thereof” (USTAV ORGANICKE CHEMIE A BIOCHEMIE AV CR V.V.I., priority 2021, published 2025)
